The values that follow come from the supplement of paper PMC10307832.

Common to all, as to assay: relative viability (nuclei count vs DMSO), 5 days (fraction); higher = more cells survive
Compound in the test “Elesclomol + Vorinostat”: CN(NC(=O)CC(=O)NN(C)C(=S)c1ccccc1)C(=S)c1ccccc1 [Elesclomol] + O=C(CCCCCCC(=O)Nc1ccccc1)NO [Vorinostat] (partner 1 µM)
An outline of the steps: (§1)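 Values are medians from duplicate plates. Each reflects relative viability, defined as the nuclei count of treated wells over that of vehicle wells. Lung cancer cell lines in 1536-well plates were pin-tool dosed one day after seeding with one drug alone or with a fixed anchor-drug dose plus five library-drug doses (not always all listed) in √10 steps, then fixed, stained and imaged at 4× after 5 days.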

Compound in the test “Elesclomol + AZD7762”: CN(NC(=O)CC(=O)NN(C)C(=S)c1ccccc1)C(=S)c1ccccc1 [Elesclomol] + NC(=O)Nc1cc(-c2cccc(F)c2)sc1C(=O)N[C@H]1CCCNC1 [AZD7762] (partner 0.2 µM)
An outline of the steps:
as §1

Compound in the test “Elesclomol + Lapatinib”: CN(NC(=O)CC(=O)NN(C)C(=S)c1ccccc1)C(=S)c1ccccc1 [Elesclomol] + CS(=O)(=O)CCNCc1ccc(-c2ccc3ncnc(Nc4ccc(OCc5cccc(F)c5)c(Cl)c4)c3c2)o1 [Lapatinib] (partner 2 µM)
Put shortly: as §1

Compound in the test “Elesclomol + Trametinib”: CN(NC(=O)CC(=O)NN(C)C(=S)c1ccccc1)C(=S)c1ccccc1 [Elesclomol] + CC(=O)Nc1cccc(-n2c(=O)n(C3CC3)c(=O)c3c(Nc4ccc(I)cc4F)n(C)c(=O)c(C)c32)c1 [Trametinib] (partner 0.02 µM)
An outline of the steps:
as §1

Compound in a further test: CN(NC(=O)CC(=O)NN(C)C(=S)c1ccccc1)C(=S)c1ccccc1 [Elesclomol]
Put shortly: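 Lung cancer cell lines in 1536-well plates were kept overnight at 37 °C, then pinned with five library-drug doses (not always all listed) spaced by √10 on vehicle-anchored plates. After 5 days without medium change, cells were fixed, permeabilised and Hoechst-stained in one step, imaged at 4×, and nuclei were counted with MetaXpress. Viability is treated-well nuclei divided by vehicle-well nuclei, taken as the median over plates. Plates passed only with control CV below 25% and at least one doubling.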

Take EKVX: the relative viability with Elesclomol + Vorinostat (first compound 0.003162 µM) is 0.659; in the test with Elesclomol + Vorinostat (first compound 0.01 µM), 0.336; with Elesclomol + Vorinostat (first compound 0.03162 µM) it was 0.241; with Elesclomol + Vorinostat (first compound 0.1 µM), 0.253; with Elesclomol + AZD7762 (first compound 0.003162 µM) it was 0.569; with Elesclomol + AZD7762 (first compound 0.01 µM), 0.318. The relative viability with Elesclomol + AZD7762 (first compound 0.03162 µM) was 0.206; with Elesclomol + AZD7762 (first compound 0.1 µM), 0.0929; in the test with Elesclomol + Lapatinib (first compound 0.003162 µM), 0.204; with Elesclomol + Lapatinib (first compound 0.01 µM), 0.204; with Elesclomol + Lapatinib (first compound 0.03162 µM), 0.16; with Elesclomol + Lapatinib (first compound 0.1 µM), 0.141. Moreover, the relative viability was 0.313 with Elesclomol + Trametinib (first compound 0.003162 µM); 0.188 in the test with Elesclomol + Trametinib (first compound 0.01 µM); 0.144 with Elesclomol + Trametinib (first compound 0.03162 µM); 0.105 with Elesclomol + Trametinib (first compound 0.1 µM); 0.912 with Elesclomol (0.003162 µM); 0.662 in the test with Elesclomol (0.01 µM). Also, the relative viability with Elesclomol (0.03162 µM) was found to be 0.379; in the test with Elesclomol (0.1 µM), 0.203.
Take HARA: the relative viability in the test with Elesclomol + Vorinostat (first compound 0.003162 µM) was 0.607; with Elesclomol + Vorinostat (first compound 0.01 µM), 0.542; with Elesclomol + Vorinostat (first compound 0.03162 µM), 0.616; in the test with Elesclomol + Vorinostat (first compound 0.1 µM) it was 0.163; with Elesclomol + AZD7762 (first compound 0.003162 µM), 0.348; with Elesclomol + AZD7762 (first compound 0.01 µM), 0.288. Further, the relative viability in the test with Elesclomol + AZD7762 (first compound 0.03162 µM) was found to be 0.302; with Elesclomol + AZD7762 (first compound 0.1 µM), 0.227; in the test with Elesclomol + Lapatinib (first compound 0.003162 µM) it was 0.679; with Elesclomol + Lapatinib (first compound 0.01 µM), 0.715; with Elesclomol + Lapatinib (first compound 0.03162 µM), 0.756; with Elesclomol + Lapatinib (first compound 0.1 µM) it was 0.186. The relative viability turned out to be 0.704 with Elesclomol + Trametinib (first compound 0.003162 µM); 0.465 with Elesclomol + Trametinib (first compound 0.01 µM); 0.189 with Elesclomol + Trametinib (first compound 0.03162 µM); 0.159 with Elesclomol + Trametinib (first compound 0.1 µM); 0.883 with Elesclomol (0.003162 µM); 0.879 in the test with Elesclomol (0.01 µM). Further, the results for the relative viability in the test with Elesclomol (0.03162 µM) and with Elesclomol (0.1 µM) were 0.919 and 0.293, respectively.
On to EMC-BAC-2, for which the relative viability with Elesclomol + Vorinostat (first compound 0.003162 µM) worked out at 0.486; with Elesclomol + Vorinostat (first compound 0.01 µM), 0.231; with Elesclomol + Vorinostat (first compound 0.1 µM), 0.22; in the test with Elesclomol + AZD7762 (first compound 0.003162 µM), 1.2; with Elesclomol + AZD7762 (first compound 0.01 µM) it was 0.775; in the test with Elesclomol + AZD7762 (first compound 0.03162 µM), 0.831. Also, the relative viability in the test with Elesclomol + AZD7762 (first compound 0.1 µM) stood at 0.684; with Elesclomol + Lapatinib (first compound 0.003162 µM), 0.841; in the test with Elesclomol + Lapatinib (first compound 0.01 µM) it was 0.797; with Elesclomol + Lapatinib (first compound 0.03162 µM) it was 0.757; with Elesclomol + Lapatinib (first compound 0.1 µM) it was 0.541; with Elesclomol + Trametinib (first compound 0.003162 µM), 0.813. Further, the relative viability stood at 0.808 with Elesclomol + Trametinib (first compound 0.01 µM); 0.4 with Elesclomol + Trametinib (first compound 0.1 µM); 1.05 in the test with Elesclomol (0.003162 µM); 0.548 in the test with Elesclomol (0.01 µM); 0.602 with Elesclomol (0.03162 µM); 0.557 in the test with Elesclomol (0.1 µM).
On to PC-14, for which the relative viability in the test with Elesclomol + Vorinostat (first compound 0.003162 µM) was 0.0807; with Elesclomol + Vorinostat (first compound 0.01 µM), 0.0343; in the test with Elesclomol + Vorinostat (first compound 0.03162 µM), 0.0162; with Elesclomol + Vorinostat (first compound 0.1 µM), 0.0149; with Elesclomol + AZD7762 (first compound 0.003162 µM), 0.488; with Elesclomol + AZD7762 (first compound 0.01 µM), 0.107. In addition, the relative viability turned out to be 0.055 with Elesclomol + AZD7762 (first compound 0.03162 µM); 0.0324 in the test with Elesclomol + AZD7762 (first compound 0.1 µM); 0.337 with Elesclomol + Lapatinib (first compound 0.003162 µM); 0.295 with Elesclomol + Lapatinib (first compound 0.01 µM); 0.228 with Elesclomol + Lapatinib (first compound 0.03162 µM); 0.0843 in the test with Elesclomol + Lapatinib (first compound 0.1 µM). Besides, the relative viability with Elesclomol + Trametinib (first compound 0.003162 µM) turned out to be 0.206; in the test with Elesclomol + Trametinib (first compound 0.01 µM), 0.0608; with Elesclomol + Trametinib (first compound 0.03162 µM), 0.0204; with Elesclomol + Trametinib (first compound 0.1 µM) it was 0.0164; with Elesclomol (0.003162 µM), 0.923; with Elesclomol (0.01 µM), 0.261. The relative viability in the test with Elesclomol (0.03162 µM) was determined as 0.0507; with Elesclomol (0.1 µM), 0.039.
